Patent publication US20100297765A1 (priority 2006, published 2010)

Assays:
[1] = test system: keratinocytes and LCs or fibroblasts and DDC in co-culture; assay: Cytokine secretion in monolayer pluricellular co-culture models under the effect of an active ingredient; assay type: cell-based, human; details: retinol 0.05% final concentration in culture medium for 3 days
Text: (§1) 1 to 2.10^6 human keratinocytes and 1 to 2.10^6 human monocytes (obtained according to Example 1 or 2) are jointly grown in a nutritious medium, for example of the K-SFM type, in culture dishes, for example of the 6-well plate type. The joint culture is maintained for 6 days in a nutritious medium, for example of the K-SFM type, without adding any exogenous cytokine.
as §1, with “fibroblasts” for “keratinocytes”, “FBM” for “K-SFM”, “dishes” for “dishes,”
In order to assess the irritating, sensitizing, allergizing potency, and to estimate a possible pro- or anti-inflammatory activity of an active ingredient intended for human skin, we quantify in the culture supernatants, secretion of cytokines, for example, IL-1, IL-6, IL-8, IL-10, TNF-[…] INF[…], according to the following protocol: • The model is made according to the protocol described in Example 3 or 4. • Retinol is then added into the culture medium at a final concentration of 0.05% for 3 days. • The culture supernatants are then recovered and analyzed.

[2] = test system: pro-inflammatory cytokines (IL-1, IL-6, IL-8, TNF-alpha, INF-gamma); assay: CBA flux cytometry dosage of cytokine secretion in culture supernatants of UV-irradiated reconstructed skin; assay type: cell-based, human; details: for efficiency on cell viability and synthesis of pro-inflammatory interleukins after solar UV stress: both parameters (cell mortality, pro-inflammatory molecules), UV-irradiated reconstructed skin; for TNFβ / IL1β / IL8 / IL6: reconstructed skin UV irradiated + formulation with 3% active, 10 days; for TNFβ: control 53, UV irradiated 152; for IL1β: control 76, UV irradiated 179; for IL8: control 275, UV irradiated 395; for IL6: control 379, UV irradiated 649
Text: The model was made according to the following protocol: • The reconstructed dermis model containing DCCs, macrophages and endothelial cells was made according to Example 12. • The reconstructed skin model containing LCs was made according to Example 14.

| Compound | secretion of pro-inflammatory cytokines [1] | efficiency on cell viability and synthesis of pro-inflammatory interleukins after solar UV stress [2] | TNFβ [2] [pg/mL] | IL1β [2] [pg/mL] | IL8 [2] [pg/mL] | IL6 [2] [pg/mL] |
| --- | --- | --- | --- | --- | --- | --- |
| CC1=C(/C=C/C(C)=C/C=C/C(C)=C/CO)C(C)(C)CCC1 [retinol, Retinol] | stimulation of secretion of pro-inflammatory cytokines |  |  |  |  |  |
| Hesperitine Laurate [Flavagrum] |  | demonstrated efficiency with a possible tendency to restore the reference level | 105 | 125 | 312 | 452 |
| Quercitine Caprylate [Flavenger] |  | demonstrated efficiency with a possible tendency to restore the reference level | 89 | 97 | 294 | 426 |
